pEC50, pIC50: −log10 of the molar value. ≈ marks a conversion by molar mass, not a printed value.
Key:
[1] = (§1) Cmax in cannulated Sprague-Dawley rat assessed as (S)-(5S,10S,11S,14S)-11-Benzyl-5,14-di-tert-butyl-3,6,13,16-tetraoxo-8-(4-(pyridin-2-yl)benzyl)-2,17-dioxa-4,7,8,12,15-pentaazaoctadecan-10-yl 2-amino-3-methylbutanoate level at 3 mg/kg equiv of atazanavir administered orally by UPLC/MS/MS analysis; type: ADME, organism-based; design: dose 3 mg/kg, route oral; details: in vivo, po
[2] = Tmax in cannulated Sprague-Dawley rat assessed as (S)-(5S,10S,11S,14S)-11-Benzyl-5,14-di-tert-butyl-3,6,13,16-tetraoxo-8-(4-(pyridin-2-yl)benzyl)-2,17-dioxa-4,7,8,12,15-pentaazaoctadecan-10-yl 2-amino-3-methylbutanoate level at 3 mg/kg equiv of atazanavir administered orally by UPLC/MS/MS analysis; type: ADME, organism-based; details: in vivo, po
[3] = as §1, with “AUClast” for “Cmax”; type: ADME, organism-based; design: dose 3 mg/kg, time 0 - last, route oral; details: in vivo, po
Protease = Protease (Human immunodeficiency virus 1, UniProt Q9YQ12)
Protease, sequence (Q9YQ12 whole entry): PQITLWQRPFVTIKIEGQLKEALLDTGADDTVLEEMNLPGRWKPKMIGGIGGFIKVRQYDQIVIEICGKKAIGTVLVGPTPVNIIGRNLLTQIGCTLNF
Description: Inhibition of HIV1 protease activity

[4] = rat, in vivo, po, 3 mg/kg
[5] = rat, in vivo, po, 3 mg/kg; remark: listed apart in the source
[6] = rat, in vivo, po, 3 mg/kg; remark: listed apart in the source
Description: AUClast in cannulated Sprague-Dawley rat assessed as atazanavir level at 3 mg/kg equiv of atazanavir administered orally by UPLC/MS/MS analysis

[7] = tested on: Human immunodeficiency virus 1
Description: Antiviral activity against HIV1 NL4-3 infected in human MT2 cells assessed as reduction in viral yield measured after 4 days by EnduRen live cell substrate based luciferase reporter gene assay

physchem [8] = details: 30% CH3CN/HCl buffer, pH 1
Description: Half life in pH 1 30%CH3CN/HCl buffer at 50 mM by RP-UPLC analysis

physchem [9] = details: 30% CH3CN/acetate buffer, pH 4
Description: Half life in pH 4 30%CH3CN/acetate buffer at 50 mM by RP-UPLC analysis

physchem [10] = details: 30% CH3CN/phosphate buffer, pH 6.5
Description: Half life in pH 6.5 30%CH3CN/phosphate buffer at 50 mM by RP-UPLC analysis

physchem [11] = details: HCl buffer, pH 1
Description: Aqueous solubility of the compound in pH 1 HCl buffer by RP-UPLC analysis

physchem [12] = details: acetate buffer, pH 4
Description: Aqueous solubility of the compound in pH 4 acetate buffer by RP-UPLC analysis

physchem [13] = details: phosphate buffer, pH 6.5
Description: Aqueous solubility of the compound in pH 6.5 phosphate buffer by RP-UPLC analysis

[14] = Stability in pH 6.5 30%CH3CN/phosphate buffer assessed as parent compound remaining at 50 mM measured after 30 mins by RP-UPLC analysis; type: physicochemical; details: read-out: Stability
[15] = Cmax in cannulated Sprague-Dawley rat assessed as atazanavir level at 30 mg/kg equiv of atazanavir administered orally by UPLC/MS/MS analysis; type: ADME, organism-based; design: dose 30 mg/kg, route oral; details: in vivo, po
[16] = Stability in pH 6.5 30%CH3CN/phosphate buffer assessed as parent compound remaining at 50 mM measured after 2 mins by RP-UPLC analysis; type: physicochemical; details: read-out: Stability
[17] = Tmax in cannulated Sprague-Dawley rat assessed as atazanavir level at 30 mg/kg equiv of atazanavir administered orally by UPLC/MS/MS analysis; type: ADME, organism-based; details: in vivo, po
[18] = AUClast in cannulated Sprague-Dawley rat assessed as atazanavir level at 30 mg/kg equiv of atazanavir administered orally by UPLC/MS/MS analysis; type: ADME, organism-based; design: dose 30 mg/kg, route oral, time 0 - last; details: in vivo, po
[19] = Cmin in cannulated Sprague-Dawley rat assessed as atazanavir level at 3 mg/kg equiv of atazanavir administered orally measured after 24 hrs by UPLC/MS/MS analysis; type: ADME, organism-based; details: in vivo, po, read-out: Cmin
[20] = Cmin in cannulated Sprague-Dawley rat assessed as atazanavir level at 30 mg/kg equiv of atazanavir administered orally measured after 24 hrs by UPLC/MS/MS analysis; type: ADME, organism-based; details: in vivo, po, read-out: Cmin
[21] = Cmin in cannulated Sprague-Dawley rat at 3 mg/kg equiv of atazanavir administered orally measured after 24 hrs by UPLC/MS/MS analysis; type: ADME, organism-based; details: in vivo, po, BLD = below limit of detection
[22] = Cmin in cannulated Sprague-Dawley rat at 30 mg/kg equiv of atazanavir administered orally measured after 24 hrs by UPLC/MS/MS analysis; type: ADME, organism-based; details: in vivo, po, BLD = below limit of detection
[23] = Prodrug conversion in cannulated Sprague-Dawley rat plasma assessed as atazanavir formation at 3 mg/kg equiv of atazanavir administered orally by UPLC/MS/MS analysis; type: ADME, organism-based; details: in vivo, po
[24] = Prodrug conversion assessed as recombinant rat intestinal alkaline phosphatase-mediated compound dephosphorylation by measuring half life by UPLC-MS/MS analysis; type: ADME
[25] = Prodrug conversion assessed as recombinant human intestinal alkaline phosphatase-mediated compound dephosphorylation by measuring half life by UPLC-MS/MS analysis; type: ADME; details: isolated protein
[26] = Half life in pH 2 30%CH3CN solution at 50 mM by RP-UPLC analysis; type: physicochemical

Cmax [4] [nM] | Tmax [5] [h] | AUClast [6] [µM·h] | half-life at 50000 µM (physchem [8]) [h] | half-life at 50000 µM (physchem [9]) [h] | half-life at 50000 µM (physchem [10]) [h] | solubility (physchem [11]) [µg/mL] | solubility (physchem [12]) [µg/mL] | solubility (physchem [13]) [µg/mL] | SMILES | also measured
4 | 5 | 0.02 | > 500 | > 500 | > 500 | > 2150 | > 1200 | 780 (≈ 864 µM) | COC(=O)N[C@H](C(=O)N[C@@H](Cc1ccccc1)[C@H](CN(Cc1ccc(-c2ccccn2)cc1)NC(=O)[C@@H](NC(=O)OC)C(C)(C)C)OC(=O)[C@@H](NC(=O)[C@@H](N)C(C)C)C(C)C)C(C)(C)C | Cmax [1]: 30 nM; Tmax [2]: 3 h; AUClast [3]: 0.085 µM·h; pIC50 (Protease): 5.94 to 8.40; pEC50 [7]: 5.90 to 9.05
794 | 1 | 1.533 | > 500 | 9.03 | 0.08 | 1170 | – | – | COC(=O)N[C@H](C(=O)N[C@@H](Cc1ccccc1)[C@H](CN(Cc1ccc(-c2ccccn2)cc1)NC(=O)[C@@H](NC(=O)OC)C(C)(C)C)OC(=O)CN(C)C(=O)[C@@H](N)Cc1ccccc1)C(C)(C)C.Cl.Cl | remaining at 0.5 h, 50000 µM [14]: 2%; Cmax [15]: 8760 nM; remaining at 2 min, 50000 µM [16]: 86.1%; Tmax [17]: 1 h; AUClast [18]: 16.58 µM·h; concentration [19]: 1.9 nM; concentration [20]: 30.4 nM; Cmin [21]: Bld; Cmin [22]: Bld
257 | 0.25 | 0.277 | 0.2 | > 500 | > 500 | – | > 930 | > 1060 | COC(=O)N[C@H](C(=O)N[C@@H](Cc1ccccc1)[C@H](CN(Cc1ccc(-c2ccccn2)cc1)NC(=O)[C@@H](NC(=O)OC)C(C)(C)C)OCOP(=O)([O-])[O-])C(C)(C)C.[Na+].[Na+] | Drug metabolism [23]: Metabolite_Detected; t1/2 [24]: > 0.167 h; t1/2 [25]: 0.35 h; half-life at 50000 µM [26]: 1.95 h

Reference: ChEMBL document CHEMBL4390686, “Design, Synthesis, and Pharmacokinetic Evaluation of Phosphate and Amino Acid Ester Prodrugs for Improving the Oral Bioavailability of the HIV-1 Protease Inhibitor Atazanavir” (J Med Chem, 2019)
